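Exposure lasted 48 hours, with cells grown in 96-well plates and compounds tested at five concentrations. TGI denotes the concentration required for complete inhibition of growth.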
How the values were obtained:
Experiment in all cases: NCI-60 cell line screen, 48 h
CAKI-1 renal = test system: CAKI-1 renal
OVCAR-3 ovarian = test system: OVCAR-3 ovarian
RXF 393 renal = test system: RXF 393 renal
KM12 colon = test system: KM12 colon
SK-OV-3 ovarian = test system: SK-OV-3 ovarian
ACHN renal = test system: ACHN renal
M19-MEL melanoma = test system: M19-MEL melanoma
HOP-92 NSCLC = test system: HOP-92 NSCLC
HOP-62 NSCLC = test system: HOP-62 NSCLC
IGROV1 ovarian = test system: IGROV1 ovarian
SW-620 colon = test system: SW-620 colon
LXFL 529 NSCLC = test system: LXFL 529 NSCLC
SN12C renal = test system: SN12C renal
SK-MEL-2 melanoma = test system: SK-MEL-2 melanoma
DLD-1 colon = test system: DLD-1 colon
HL-60(TB) leukemia = test system: HL-60(TB) leukemia
SK-MEL-28 melanoma = test system: SK-MEL-28 melanoma
NCI-H460 lung = test system: NCI-H460 lung
MALME-3M melanoma = test system: MALME-3M melanoma
K-562 leukemia = test system: K-562 leukemia
HOP-18 NSCLC = test system: HOP-18 NSCLC
NCI-H226 lung = test system: NCI-H226 lung
M14 melanoma = test system: M14 melanoma
UACC-62 melanoma = test system: UACC-62 melanoma
HCT-116 colon = test system: HCT-116 colon
SNB-75 CNS = test system: SNB-75 CNS
HT29 colon = test system: HT29 colon
CCRF-CEM leukemia = test system: CCRF-CEM leukemia
LOX IMVI melanoma = test system: LOX IMVI melanoma
SNB-19 CNS = test system: SNB-19 CNS
TK-10 renal = test system: TK-10 renal
OVCAR-5 ovarian = test system: OVCAR-5 ovarian
786-0 renal = test system: 786-0 renal
SF-295 CNS = test system: SF-295 CNS
MOLT-4 leukemia = test system: MOLT-4 leukemia
OVCAR-8 ovarian = test system: OVCAR-8 ovarian
U251 CNS = test system: U251 CNS
SK-MEL-5 melanoma = test system: SK-MEL-5 melanoma
DMS 273 small cell lung = test system: DMS 273 small cell lung
HCT-15 colon = test system: HCT-15 colon
NCI-H522 lung = test system: NCI-H522 lung
SF-539 CNS = test system: SF-539 CNS
KM20L2 colon = test system: KM20L2 colon
UO-31 renal = test system: UO-31 renal
SNB-78 CNS = test system: SNB-78 CNS
A549 NSCLC = test system: A549 NSCLC
HCC-2998 colon = test system: HCC-2998 colon
COLO 205 colon = test system: COLO 205 colon
RPMI-8226 leukemia = test system: RPMI-8226 leukemia
SR leukemia = test system: SR leukemia
EKVX NSCLC = test system: EKVX NSCLC
DMS 114 small cell lung = test system: DMS 114 small cell lung
NCI-H23 lung = test system: NCI-H23 lung
SF-268 CNS = test system: SF-268 CNS
A498 renal = test system: A498 renal
XF 498 CNS = test system: XF 498 CNS
UACC-257 melanoma = test system: UACC-257 melanoma
OVCAR-4 ovarian = test system: OVCAR-4 ovarian

Measured: TGI

[N-]=[N+]=NC(c1cn(C2CC(O)C(CO)O2)c(=O)[nH]c1=O)C(Br)Br (configuration not stated)
not listed: SF-268 CNS | A498 renal | XF 498 CNS | UACC-257 melanoma | OVCAR-4 ovarian
> 100 µM: all other assays above

NC(=S)/N=C(/c1nc2ccc(Cl)cc2[nH]c1=O)C(O)c1ccccc1Cl (configuration not stated)
not listed: CAKI-1 renal | OVCAR-3 ovarian | M19-MEL melanoma | SN12C renal | HCT-116 colon | SNB-19 CNS | SK-MEL-5 melanoma | SNB-78 CNS | SR leukemia
> 100 µM: all other assays above
